The first assay has as its target T1, human cloned 5-HT6 receptors (Homo sapiens, UniProt P50406).
T1 construct: expressed in transfected cells; host or cells: HeLa cells
Nature of the assay: 5-HT6 binding affinity, [3H]-LSD displacement on membranes of Hela cells.
Settings: not given
As for the experimental part: The affinity of test compounds for the 5-HT6 receptor is evaluated in the following manner. Cultured Hela cells expressing human cloned 5-HT6 receptors are harvested and centrifuged at low speed (1,000×g) for 10.0 min to remove the culture media. The harvested cells are suspended in half volume of fresh physiological phosphate buffered saline solution and recentrifuged at the same speed. This operation is repeated. The collected cells are then homogenized in ten volumes of 50 mM Tris.HCl (pH 7.4) and 0.5 mM EDTA. The homogenate is centrifuged at 40,000×g for 30.0 min and the precipitate is collected. The obtained pellet is resuspended in 10 volumes of Tris.HCl buffer and recentrifuged at the same speed. The final pellet is suspended in a small volume of Tris.HCl buffer and the tissue protein content is determined in aliquots of 10-25 microliter volumes. […] The volume of the suspended cell membranes is adjusted to give a tissue protein concentration of 1.0 mg/mL of suspension. The prepared membrane suspension (10 times concentrated) is aliquoted in 1.0 mL volumes and stored at −70° C. until used in subsequent binding experiments.
Binding experiments are performed in a 96 well microtiter plate format in a total volume of 200 microliters. […] The test compounds are added in 20.0 microliter volume.
The bound complex caught on the filter disk is allowed to air dry and the radioactivity is measured in a Packard TopCount® equipped with six photomultiplier detectors, after the addition of 40.0 microliter Microscint®-20 scintillant to each shallow well.
Binding in the presence of varying concentrations of test compound is expressed as a percentage of specific binding in the absence of test compound. The results are plotted as log % bound versus log concentration of the test compound.
T1 sequence (P50406 whole entry): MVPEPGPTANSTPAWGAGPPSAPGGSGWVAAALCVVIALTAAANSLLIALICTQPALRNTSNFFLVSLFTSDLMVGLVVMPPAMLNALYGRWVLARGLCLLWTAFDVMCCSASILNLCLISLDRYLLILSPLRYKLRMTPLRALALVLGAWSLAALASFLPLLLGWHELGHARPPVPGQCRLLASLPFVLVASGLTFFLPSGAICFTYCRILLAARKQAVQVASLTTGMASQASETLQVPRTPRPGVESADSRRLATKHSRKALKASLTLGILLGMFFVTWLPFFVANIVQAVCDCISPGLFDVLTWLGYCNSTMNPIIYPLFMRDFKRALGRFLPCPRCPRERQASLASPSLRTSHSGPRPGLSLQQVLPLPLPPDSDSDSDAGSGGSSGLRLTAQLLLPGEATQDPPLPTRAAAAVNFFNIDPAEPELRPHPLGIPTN
Regarding `CCCNCCc1ccc2[nH]cc(S(=O)(=O)c3ccccc3)c2c1` [Example 2, N-{2-[3-(phenylsulfonyl)-1H-indol-5-yl]ethyl}-N-propylamine], the Ki turned out to be 34.7 nM. In the case of `CC(C)NCCc1ccc2[nH]cc(S(=O)(=O)c3ccccc3)c2c1` [Example 3, N-{2-[3-(phenylsulfonyl)-1H-indol-5-yl]ethyl}propan-2-amine], the affinity corresponds to a Ki of 56.7 nM.

The compound `NCCc1ccc2[nH]cc(S(=O)(=O)c3ccccc3)c2c1` [Example 12, {2-[3-(phenylsulfonyl)-1H-indol-5-yl]ethyl}amine] came in with a Ki of 7 nM. The compound `O=S(=O)(c1ccccc1)c1c[nH]c2c(CCNC3CC3)cccc12` [Example 22, N-{2-[3-(phenylsulfonyl)-1H-indol-7-yl]ethyl}cyclopropanamine] gave a Ki of 5.5 nM.

Still in this assay, the particulars now being: Table 1; [3H]-LSD 3.0 nM, Hela cell membranes; read-out: Ki (nM) @ 5-HT6 receptor.
Consider `CN(C)CCc1ccc2[nH]cc(S(=O)(=O)c3ccccc3)c2c1` [Example 1, N,N-dimethyl-N-{2-[3-(phenylsulfonyl)-1H-indol-5-yl]ethyl}amine], for which the Ki was 9 nM.

For the compound `O=S(=O)(c1ccccc1)c1c[nH]c2ccc(CCNC3CC3)cc12` [Example 4, N-{2-[3-(phenylsulfonyl)-1H-indol-5-yl]ethyl}cyclopropanamine], the Ki stood at 15 nM. On the same count and under the same terms, the value for `O=S(=O)(c1ccccc1)c1c[nH]c2ccc(CCNC3CCCC3)cc12` [Example 5, N-{2-[3-(phenylsulfonyl)-1H-indol-5-yl]ethyl}cyclopentanamine] was 37 nM; that for `O=S(=O)(c1ccccc1)c1c[nH]c2ccc(CCNCc3ccccc3)cc12` [Example 6, N-benzyl-N-{2-[3-(phenylsulfonyl)-1H-indol-5-yl]ethyl}amine] was 24 nM. In the case of `CCN(C)CCc1ccc2[nH]cc(S(=O)(=O)c3ccccc3)c2c1` [Example 7, N-ethyl-N-methyl-N-{2-[3-(phenylsulfonyl)-1H-indol-5-yl]ethyl}amine], the Ki was 7 nM.

On to `CCN(CC)CCc1ccc2[nH]cc(S(=O)(=O)c3ccccc3)c2c1` [Example 8, N,N-diethyl-N-{2-[3-(phenylsulfonyl)-1H-indol-5-yl]ethyl}amine], for which the Ki stood at 17 nM.

Consider `O=S(=O)(c1ccccc1)c1c[nH]c2ccc(CCN3CCCC3)cc12` [Example 9, 3-(phenylsulfonyl)-5-(2-pyrrolidin-1-ylethyl)-1H-indole], for which the Ki amounted to 28 nM. In the case of `O=S(=O)(c1ccccc1)c1c[nH]c2ccc(CCN3CCCCC3)cc12` [Example 10, 3-(phenylsulfonyl)-5-(2-piperidin-1-ylethyl)-1H-indole], the Ki was determined as 10.3 nM. With `O=S(=O)(c1ccccc1)c1c[nH]c2ccc(CCN3CCOCC3)cc12` [Example 11, 5-(2-morpholin-4-ylethyl)-3-(phenylsulfonyl)-1H-indole], the Ki was 39 nM. Consider `O=S(=O)(c1ccccc1)c1c[nH]c2ccc(CCN3CCNCC3)cc12` [Example 13, 3-(phenylsulfonyl)-5-(2-piperazin-1-ylethyl)-1H-indole], for which the Ki was determined as 68 nM. Turning to `CN(C)CCc1cccc2c(S(=O)(=O)c3ccccc3)c[nH]c12` [Example 18, N,N-dimethyl-N-{2-[3-(phenylsulfonyl)-1H-indol-7-yl]ethyl}amine], the Ki came to 2.3 nM. Consider `CNCCc1cccc2c(S(=O)(=O)c3ccccc3)c[nH]c12` [Example 19, N-methyl-N-{2-[3-(phenylsulfonyl)-1H-indol-7-yl]ethyl}amine], for which the Ki was found to be 2.3 nM. Still for that read-out and setting: the value for `CCCNCCc1cccc2c(S(=O)(=O)c3ccccc3)c[nH]c12` [Example 20, N-{2-[3-(phenylsulfonyl)-1H-indol-7-yl]ethyl}-N-propylamine] was 9.1 nM. Regarding `CC(C)NCCc1cccc2c(S(=O)(=O)c3ccccc3)c[nH]c12` [Example 21, N-{2-[3-(phenylsulfonyl)-1H-indol-7-yl]ethyl}propan-2-amine], the Ki came to 9.4 nM.

As for `O=S(=O)(c1ccccc1)c1c[nH]c2c(CCNC3CCCC3)cccc12` [Example 23, N-{2-[3-(phenylsulfonyl)-1H-indol-7-yl]ethyl}cyclopentanamine], the Ki was determined as 18 nM.

For the origin of these results see US7645752B2, “Sulfonyl substituted 1H-indoles as ligands for the 5-hydroxytryptamine receptors” (Wyeth LLC, priority 2006, dated 2010).
